Values belong to the compound of their own block, whether it stands above or below them.
Experiments:
Aurora kinase B [1] = target: T1, Aurora kinase B (Homo sapiens, UniProt Q96GD4)
[2] = Growth inhibition of human HCT116 cells after 96 hrs by MTS assay; type: functional; conditions: HCT-116, 96 h
[3] = target: Vascular endothelial growth factor receptor 1 (Homo sapiens, UniProt P17948); experiment: Inhibition of human recombinant GST-tagged FLT1 cytoplasmic domain (781 to 1338 residues) expressed in baculovirus expression system at 1 uM
[4] = target: Proto-oncogene tyrosine-protein kinase receptor Ret (Homo sapiens) (UniProt P07949); experiment: Inhibition of human recombinant GST-tagged RET cytoplasmic domain (658 to 1114 residues) expressed in baculovirus expression system at 1 uM
[5] = target: Vascular endothelial growth factor receptor 3 (Homo sapiens, UniProt P35916); experiment: Inhibition of human recombinant GST-tagged FLT4 cytoplasmic domain (800 to 1297 residues) expressed in baculovirus expression system at 1 uM
[6] = target: Tyrosine-protein kinase JAK1 (Homo sapiens) (UniProt P23458); experiment: Inhibition of human recombinant GST-tagged JAK1 cytoplasmic domain (866 to 1154 residues) expressed in baculovirus expression system at 1 uM
[7] = target: Phosphatidylinositol 4-phosphate 3-kinase C2 domain-containing subunit beta (Homo sapiens) (UniProt O00750); experiment: Inhibition of human recombinant N-terminal GST-tagged PIK3C2B (155 to 1383 residues) catalytic domain expressed in baculovirus expression system at 1 uM
[8] = target: Tyrosine-protein kinase ABL1 (Homo sapiens) (UniProt P00519); experiment: Inhibition of human recombinant full-length His-tagged ABL1 cytoplasmic domain expressed in baculovirus expression system at 1 uM
[9] = target: Rho-associated protein kinase 1 (Homo sapiens) (UniProt Q13464); experiment: Inhibition of human recombinant GST-tagged ROCK1 catalytic domain (1 to 535 residues) expressed in baculovirus expression system at 1 uM
[10] = target: Cyclin-dependent kinase 1 (Homo sapiens) (UniProt P06493); experiment: Inhibition of CDK1 (unknown origin) at 1 uM
[11] = target: Phosphatidylinositol 4-phosphate 3-kinase C2 domain-containing subunit alpha (Homo sapiens) (UniProt O00443); experiment: Inhibition of human recombinant N-terminal GST-tagged PIK3C2A catalytic domain expressed in baculovirus expression system at 1 uM
[12] = target: Angiopoietin-1 receptor (Homo sapiens) (UniProt Q02763); experiment: Inhibition of human recombinant GST-tagged TEK cytoplasmic domain (817 to 1101 residues) expressed in baculovirus expression system at 1 uM
[13] = target: Receptor-type tyrosine-protein kinase FLT3 (Homo sapiens) (UniProt P36888); experiment: Inhibition of human recombinant His-tagged FLT3 cytoplasmic domain (564 to 958 residues) expressed in baculovirus expression system at 1 uM
[14] = target: Mast/stem cell growth factor receptor Kit (Homo sapiens) (UniProt P10721); experiment: Inhibition of human recombinant His-tagged KIT cytoplasmic domain (544 to 976 residues) expressed in baculovirus expression system at 1 uM
[15] = target: Serine/threonine-protein kinase Chk2 (Homo sapiens) (UniProt O96017); experiment: Inhibition of human recombinant full-length His-tagged CHK2 expressed in baculovirus expression system at 1 uM
Aurora kinase B [16] = target: T1, Aurora kinase B; experiment: Inhibition of human recombinant full-length His-tagged Aurora B expressed in baculovirus expression system at 1 uM
[17] = target: Rho-associated protein kinase 2 (Homo sapiens) (UniProt O75116); experiment: Inhibition of human recombinant N-terminal GST-tagged ROCK2 catalytic domain (1 to 552 residues) expressed in baculovirus expression system at 1 uM
[18] = target: Platelet-derived growth factor receptor alpha (Homo sapiens) (UniProt P16234); experiment: Inhibition of human recombinant GST-tagged PDGFRalpha cytoplasmic domain (550 to 1089 residues) expressed in baculovirus expression system at 1 uM
[19] = target: Aurora kinase C (Homo sapiens) (UniProt Q9UQB9); experiment: Inhibition of human recombinant full-length GST-tagged Aurora C expressed in baculovirus expression system at 1 uM
[20] = target: Cyclin-dependent kinase 2 (Homo sapiens) (UniProt P24941); experiment: Inhibition of CDK2 (unknown origin) at 1 uM
[21] = target: High affinity nerve growth factor receptor (Homo sapiens) (UniProt P04629); experiment: Inhibition of human recombinant His-tagged NTRK1 cytoplasmic domain (441 to 796 residues) expressed in baculovirus expression system at 1 uM
[22] = target: Vascular endothelial growth factor receptor 2 (Homo sapiens, UniProt P35968); experiment: Inhibition of human recombinant His-tagged KDR cytoplasmic domain (789 to 1356 residues) expressed in baculovirus expression system at 1 uM
[23] = target: Platelet-derived growth factor receptor beta (Homo sapiens) (UniProt P09619); experiment: Inhibition of human recombinant His-tagged PDGFRbeta cytoplasmic domain (558 to 1106 residues) expressed in baculovirus expression system at 1 uM
[24] = target: Serine/threonine-protein kinase Chk1 (Homo sapiens) (UniProt O14757); experiment: Inhibition of human recombinant full-length His-tagged CHK1 expressed in baculovirus expression system at 1 uM
[25] = target: Dual specificity protein kinase TTK (Homo sapiens) (UniProt P33981); experiment: Inhibition of human recombinant full-length GST-tagged TTK expressed in baculovirus expression system at 1 uM
Aurora kinase C = Aurora kinase C (Homo sapiens, UniProt Q9UQB9); experiment: Inhibition of human recombinant full-length N-terminal GST-tagged Aurora C (1 to 275 end residues) expressed in baculovirus expression system using GLRRASLG-NH2 as substrate after 20 mins in presence of [gamma-33P]-ATP by liquid scintillation counting

T1 sequence (Q96GD4 whole entry): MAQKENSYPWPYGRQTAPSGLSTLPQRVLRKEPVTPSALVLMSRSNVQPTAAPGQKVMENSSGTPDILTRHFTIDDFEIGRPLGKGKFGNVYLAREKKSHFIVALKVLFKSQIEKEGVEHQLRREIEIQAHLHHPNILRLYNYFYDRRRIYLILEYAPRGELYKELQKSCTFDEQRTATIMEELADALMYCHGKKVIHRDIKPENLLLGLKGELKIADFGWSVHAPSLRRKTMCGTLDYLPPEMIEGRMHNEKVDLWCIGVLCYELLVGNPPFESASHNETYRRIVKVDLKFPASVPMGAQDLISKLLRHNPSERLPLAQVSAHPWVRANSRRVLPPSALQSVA
Sequence of Phosphatidylinositol 4-phosphate 3-kinase C2 domain-containing subunit beta (Homo sapiens) (O00750 whole entry, the tested form may be a part): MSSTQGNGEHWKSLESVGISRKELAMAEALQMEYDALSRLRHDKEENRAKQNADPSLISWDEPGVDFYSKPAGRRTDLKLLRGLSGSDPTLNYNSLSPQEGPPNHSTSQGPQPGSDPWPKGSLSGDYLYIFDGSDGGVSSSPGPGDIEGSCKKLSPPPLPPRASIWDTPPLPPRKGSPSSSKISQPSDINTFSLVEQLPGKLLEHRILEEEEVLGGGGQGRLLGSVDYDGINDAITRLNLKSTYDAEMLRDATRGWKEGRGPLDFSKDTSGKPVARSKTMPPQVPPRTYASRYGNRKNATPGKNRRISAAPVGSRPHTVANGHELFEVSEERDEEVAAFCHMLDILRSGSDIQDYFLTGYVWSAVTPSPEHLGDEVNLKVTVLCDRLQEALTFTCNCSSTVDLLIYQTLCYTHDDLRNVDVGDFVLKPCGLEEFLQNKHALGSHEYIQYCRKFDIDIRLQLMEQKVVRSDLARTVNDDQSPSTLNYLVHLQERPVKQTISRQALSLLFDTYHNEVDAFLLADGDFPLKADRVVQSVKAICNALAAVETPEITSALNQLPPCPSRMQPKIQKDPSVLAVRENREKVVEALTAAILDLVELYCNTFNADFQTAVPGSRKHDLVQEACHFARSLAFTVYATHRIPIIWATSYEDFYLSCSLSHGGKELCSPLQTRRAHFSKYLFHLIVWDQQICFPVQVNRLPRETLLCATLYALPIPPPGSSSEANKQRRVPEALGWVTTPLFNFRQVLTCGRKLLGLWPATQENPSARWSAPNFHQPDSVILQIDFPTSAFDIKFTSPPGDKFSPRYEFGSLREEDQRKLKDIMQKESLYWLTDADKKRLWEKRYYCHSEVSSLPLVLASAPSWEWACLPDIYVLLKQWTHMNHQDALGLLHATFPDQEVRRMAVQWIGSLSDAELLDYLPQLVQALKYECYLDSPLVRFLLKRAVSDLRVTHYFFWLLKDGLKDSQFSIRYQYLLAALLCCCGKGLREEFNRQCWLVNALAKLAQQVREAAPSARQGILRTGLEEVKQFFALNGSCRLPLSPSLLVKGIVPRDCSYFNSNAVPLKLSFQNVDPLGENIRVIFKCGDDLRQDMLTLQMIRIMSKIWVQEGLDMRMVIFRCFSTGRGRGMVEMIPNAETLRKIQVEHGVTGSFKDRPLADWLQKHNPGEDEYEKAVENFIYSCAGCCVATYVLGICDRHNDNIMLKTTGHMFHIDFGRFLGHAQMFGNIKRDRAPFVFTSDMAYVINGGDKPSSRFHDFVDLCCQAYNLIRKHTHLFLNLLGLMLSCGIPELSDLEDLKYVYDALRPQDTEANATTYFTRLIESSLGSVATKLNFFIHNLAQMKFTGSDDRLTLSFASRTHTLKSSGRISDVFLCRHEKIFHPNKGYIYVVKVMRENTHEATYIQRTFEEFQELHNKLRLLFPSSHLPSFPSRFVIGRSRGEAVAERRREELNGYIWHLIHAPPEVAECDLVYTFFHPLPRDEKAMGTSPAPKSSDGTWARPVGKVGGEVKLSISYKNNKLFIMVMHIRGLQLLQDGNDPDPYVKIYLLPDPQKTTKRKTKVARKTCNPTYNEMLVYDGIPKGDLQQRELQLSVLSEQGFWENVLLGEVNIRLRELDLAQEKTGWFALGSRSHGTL
Sequence of Angiopoietin-1 receptor (Homo sapiens) (Q02763 whole entry, the tested form may be a part): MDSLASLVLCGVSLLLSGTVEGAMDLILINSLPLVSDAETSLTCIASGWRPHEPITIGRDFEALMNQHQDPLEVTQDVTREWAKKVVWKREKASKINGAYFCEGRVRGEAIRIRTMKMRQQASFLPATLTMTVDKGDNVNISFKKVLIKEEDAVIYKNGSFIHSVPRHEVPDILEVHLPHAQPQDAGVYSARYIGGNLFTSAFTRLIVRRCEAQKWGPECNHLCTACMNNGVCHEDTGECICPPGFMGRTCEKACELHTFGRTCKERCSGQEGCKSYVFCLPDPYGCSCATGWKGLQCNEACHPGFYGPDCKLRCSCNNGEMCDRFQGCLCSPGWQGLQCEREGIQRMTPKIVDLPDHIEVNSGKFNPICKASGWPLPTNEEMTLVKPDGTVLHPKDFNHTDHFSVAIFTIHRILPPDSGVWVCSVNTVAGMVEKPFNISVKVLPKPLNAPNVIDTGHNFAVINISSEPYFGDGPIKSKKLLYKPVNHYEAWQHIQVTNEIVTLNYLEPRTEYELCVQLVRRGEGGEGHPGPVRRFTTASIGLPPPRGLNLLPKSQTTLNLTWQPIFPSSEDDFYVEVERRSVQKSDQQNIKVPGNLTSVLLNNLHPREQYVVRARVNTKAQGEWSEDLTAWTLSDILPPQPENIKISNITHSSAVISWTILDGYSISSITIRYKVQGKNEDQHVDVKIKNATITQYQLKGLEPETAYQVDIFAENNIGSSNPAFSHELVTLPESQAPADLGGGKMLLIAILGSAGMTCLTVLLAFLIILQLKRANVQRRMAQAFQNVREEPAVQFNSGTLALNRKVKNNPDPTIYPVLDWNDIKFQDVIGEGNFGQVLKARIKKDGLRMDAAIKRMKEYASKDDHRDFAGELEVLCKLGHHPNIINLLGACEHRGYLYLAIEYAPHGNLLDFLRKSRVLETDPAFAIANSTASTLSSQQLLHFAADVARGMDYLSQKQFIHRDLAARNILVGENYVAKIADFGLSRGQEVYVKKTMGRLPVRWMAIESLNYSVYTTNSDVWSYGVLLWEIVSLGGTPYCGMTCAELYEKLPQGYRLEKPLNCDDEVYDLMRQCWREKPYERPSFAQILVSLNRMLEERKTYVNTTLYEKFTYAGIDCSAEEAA
Sequence of Cyclin-dependent kinase 1 (Homo sapiens) (P06493 whole entry, looked up, the tested form may be a part): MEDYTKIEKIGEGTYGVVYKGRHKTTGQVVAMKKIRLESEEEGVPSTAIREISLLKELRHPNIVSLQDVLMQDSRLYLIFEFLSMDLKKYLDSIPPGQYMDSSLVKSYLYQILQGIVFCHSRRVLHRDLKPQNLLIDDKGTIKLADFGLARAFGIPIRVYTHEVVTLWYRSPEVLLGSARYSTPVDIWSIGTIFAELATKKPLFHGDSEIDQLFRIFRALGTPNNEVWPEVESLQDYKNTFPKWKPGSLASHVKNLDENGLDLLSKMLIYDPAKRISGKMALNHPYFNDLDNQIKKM
Sequence of Platelet-derived growth factor receptor beta (Homo sapiens) (P09619 whole entry, the tested form may be a part): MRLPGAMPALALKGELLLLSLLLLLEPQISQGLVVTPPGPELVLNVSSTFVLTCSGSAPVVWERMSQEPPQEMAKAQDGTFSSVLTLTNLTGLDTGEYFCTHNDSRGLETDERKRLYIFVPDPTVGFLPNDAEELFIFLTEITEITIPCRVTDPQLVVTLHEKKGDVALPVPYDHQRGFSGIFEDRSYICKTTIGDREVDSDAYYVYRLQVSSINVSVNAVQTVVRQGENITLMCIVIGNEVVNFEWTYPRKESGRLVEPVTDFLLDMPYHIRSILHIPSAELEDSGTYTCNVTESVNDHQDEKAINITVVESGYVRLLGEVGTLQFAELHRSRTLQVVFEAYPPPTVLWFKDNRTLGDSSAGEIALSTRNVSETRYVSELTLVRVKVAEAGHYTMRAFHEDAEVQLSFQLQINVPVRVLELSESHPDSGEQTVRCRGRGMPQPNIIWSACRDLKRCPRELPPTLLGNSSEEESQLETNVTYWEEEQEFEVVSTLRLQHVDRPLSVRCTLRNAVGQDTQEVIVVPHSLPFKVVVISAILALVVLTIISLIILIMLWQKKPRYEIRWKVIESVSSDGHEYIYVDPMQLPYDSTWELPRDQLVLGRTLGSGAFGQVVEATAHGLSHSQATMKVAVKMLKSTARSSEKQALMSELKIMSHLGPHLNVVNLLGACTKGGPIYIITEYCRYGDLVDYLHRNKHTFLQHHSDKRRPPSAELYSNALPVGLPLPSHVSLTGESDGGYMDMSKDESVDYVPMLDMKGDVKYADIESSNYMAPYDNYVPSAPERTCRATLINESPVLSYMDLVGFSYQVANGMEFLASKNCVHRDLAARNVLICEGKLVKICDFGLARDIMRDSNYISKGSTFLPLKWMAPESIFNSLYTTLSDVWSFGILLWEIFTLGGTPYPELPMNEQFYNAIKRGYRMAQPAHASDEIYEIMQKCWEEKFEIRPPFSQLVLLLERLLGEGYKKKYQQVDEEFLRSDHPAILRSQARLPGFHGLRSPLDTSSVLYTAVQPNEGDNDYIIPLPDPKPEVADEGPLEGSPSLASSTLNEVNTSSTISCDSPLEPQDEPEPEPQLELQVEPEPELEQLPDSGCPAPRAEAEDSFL
Sequence of Serine/threonine-protein kinase Chk2 (Homo sapiens) (O96017 whole entry): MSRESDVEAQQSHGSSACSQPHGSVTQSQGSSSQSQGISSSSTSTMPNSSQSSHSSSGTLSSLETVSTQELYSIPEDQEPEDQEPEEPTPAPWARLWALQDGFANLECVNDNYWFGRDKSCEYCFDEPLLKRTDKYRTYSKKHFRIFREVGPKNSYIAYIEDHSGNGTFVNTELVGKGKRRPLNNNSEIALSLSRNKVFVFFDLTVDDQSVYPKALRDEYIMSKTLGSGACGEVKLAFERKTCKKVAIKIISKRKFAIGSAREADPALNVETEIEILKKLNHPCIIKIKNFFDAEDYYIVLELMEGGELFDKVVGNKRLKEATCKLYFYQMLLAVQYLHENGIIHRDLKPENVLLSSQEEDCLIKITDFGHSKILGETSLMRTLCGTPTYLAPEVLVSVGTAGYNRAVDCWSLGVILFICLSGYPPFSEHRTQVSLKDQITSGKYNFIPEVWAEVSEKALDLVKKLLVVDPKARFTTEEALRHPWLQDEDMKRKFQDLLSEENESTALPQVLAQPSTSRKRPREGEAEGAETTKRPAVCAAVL

IC50 (Aurora kinase B [1]): 26 nM
Structure (SMILES): O=C(O)/C=C\C(=O)Nc1cccc(-c2n[nH]c3ccc(NS(=O)(=O)c4ccc([N+](=O)[O-])cc4)cc23)c1
GI50 [2]: > 20000 nM

Structure (SMILES): O=C(O)/C=C/C(=O)Nc1cccc(-c2n[nH]c3ccc(NS(=O)(=O)c4ccccc4)cc23)c1
GI50 [2]: > 20000 nM

Structure (SMILES): O=C(O)/C=C\C(=O)Nc1cccc(-c2n[nH]c3ccc(NS(=O)(=O)c4ccc(-c5ccccc5)cc4)cc23)c1
GI50 [2]: > 20000 nM

IC50 (Aurora kinase B [1]): 30 nM
Structure (SMILES): O=C(O)/C=C\C(=O)Nc1cccc(-c2n[nH]c3ccc(NS(=O)(=O)c4ccc(F)cc4)cc23)c1
GI50 [2]: > 20000 nM

IC50 (Aurora kinase B [1]): 31 nM
Structure (SMILES): COc1ccc(S(=O)(=O)Nc2ccc3[nH]nc(-c4cccc(NC(=O)/C=C\C(=O)O)c4)c3c2)cc1
GI50 [2]: > 20000 nM

Structure (SMILES): O=C(O)/C=C\C(=O)Nc1cccc(-c2n[nH]c3ccc(NS(=O)(=O)c4ccccc4)cc23)c1
inhibition [3]: 1% | IC50 (Aurora kinase B [1]): 15 nM | inhibition [4]: 61% | inhibition [5]: 64% | inhibition [6]: 39% | inhibition [7]: 20% | inhibition [8]: 31% | inhibition [9]: 10% | inhibition [10]: 21% | inhibition [11]: 1% | inhibition [12]: 48% | inhibition [13]: 85% | GI50 [2]: > 20000 nM | inhibition [14]: -4% | inhibition [15]: 8% | inhibition (Aurora kinase B [16]): 89% | inhibition [17]: 8% | inhibition [18]: 24% | inhibition [19]: 94% | inhibition [20]: 17% | inhibition [21]: 58% | inhibition [22]: 48% | inhibition [23]: -2% | inhibition [24]: 16% | inhibition [25]: 93%

IC50 (Aurora kinase B [1]): > 1000 nM
Structure (SMILES): CC#CC(=O)Nc1cccc(-c2n[nH]c3ccc(NS(=O)(=O)c4ccccc4)cc23)c1
GI50 [2]: 3600 nM

Structure (SMILES): CC(C)(C)c1ccc(S(=O)(=O)Nc2ccc3[nH]nc(-c4cccc(NC(=O)/C=C\C(=O)O)c4)c3c2)cc1
GI50 [2]: > 20000 nM

IC50 (Aurora kinase B [1]): 49 nM
Structure (SMILES): NC(=O)CCC(=O)Nc1cccc(-c2n[nH]c3ccc(NS(=O)(=O)c4ccccc4)cc23)c1
GI50 [2]: > 20000 nM

IC50 (Aurora kinase B [1]): 28 nM
Structure (SMILES): O=C(O)CCC(=O)Nc1cccc(-c2n[nH]c3ccc(NS(=O)(=O)c4ccccc4)cc23)c1
GI50 [2]: > 20000 nM

IC50 (Aurora kinase B [1]): 220 nM
Structure (SMILES): CC(C)OC(=O)CCC(=O)Nc1cccc(-c2n[nH]c3ccc(NS(=O)(=O)c4ccccc4)cc23)c1
GI50 [2]: > 20000 nM

IC50 (Aurora kinase B [1]): 64 nM
Structure (SMILES): CCOC(=O)CCC(=O)Nc1cccc(-c2n[nH]c3ccc(NS(=O)(=O)c4ccccc4)cc23)c1
GI50 [2]: 1900 nM

IC50 (Aurora kinase B [1]): 32 nM
Structure (SMILES): Cc1ccc(S(=O)(=O)Nc2ccc3[nH]nc(-c4cccc(NC(=O)/C=C\C(=O)O)c4)c3c2)cc1
GI50 [2]: > 20000 nM

IC50 (Aurora kinase B [1]): 48 nM
Structure (SMILES): COC(=O)CCC(=O)Nc1cccc(-c2n[nH]c3ccc(NS(=O)(=O)c4ccccc4)cc23)c1
GI50 [2]: 12000 nM

IC50 (Aurora kinase C): 12 nM
Structure (SMILES): O=C(O)[C@]1(Cc2cccc(Nc3nccs3)n2)CC[C@@H](Oc2cccc(Cl)c2F)CC1 [MK-5108]

Reference: ChEMBL document CHEMBL3871274 (Eur J Med Chem, 2016)
